Laboratory results published in US7928098B2, “Therapeutic and/or preventive agents for a sleep disorder” (Kyowa Hakko Kirin Co., Ltd., priority 2005, dated 2011).

| melting point | Compound |
| --- | --- |
| 247 to 250 °C | COc1cccc(C(=O)c2sc(NC(=O)c3ccncc3)nc2-c2ccco2)n1 [Compound 191, N-[4-(2-Furyl)-5-(6-methoxypyridin-2-ylcarbonyl)thiazol-2-yl]pyridine-4-carboxamide] |
| 221 to 224 °C | N#Cc1ccccc1C(=O)Nc1nc(-c2ccco2)c(C(=O)C2CCOCC2)s1 [Compound 377, 2-Cyano-N-[4-(2-furyl)-5-(tetrahydropyran-4-ylcarbonyl)-thiazol-2-yl]benzamide] |
| 259 to 265 °C | O=C(Nc1nc(-c2ccco2)c(C(=O)C2CCOCC2)s1)c1cc(F)cc(F)c1 [Compound 399, 3,5-Difluoro-N-[4-(2-furyl)-5-(tetrahydropyran-4-ylcarbonyl)thiazol-2-yl]benzamide] |
| 197 to 199 °C | O=C(Nc1nc(-c2ccco2)c(C(=O)C2CCCCC2)s1)c1ccncc1 [Compound 344, N-[5-(Cyclohexylcarbonyl)-4-(2-furyl)thiazol-2-yl]pyridine-4-carboxamide] |
| 150 to 154 °C | COc1ccccc1C(=O)Nc1nc(-c2ccco2)c(C(=O)C2CC2)s1 [Compound 326, N-[5-(Cyclopropylcarbonyl)-4-(2-furyl)thiazol-2-yl]-2-methoxybenzamide] |
| 170 to 172 °C | CCCC(=O)c1sc(NC(=O)C2CC2)nc1-c1ccco1 [Compound 292, N-[5-Butyryl-4-(2-furyl)thiazol-2-yl]cyclopropanecarboxamide] |
| 165 to 171 °C | O=C(Nc1nc(-c2ccco2)c(C(=O)c2ccccn2)s1)c1ccccc1 [Compound 107, N-[4-(2-Furyl)-5-(pyridin-2-ylcarbonyl)thiazol-2-yl]-benzamide] |
| 278 to 283 °C (dec.) | O=C(Nc1nc(-c2ccco2)c(C(=O)c2ccccn2)s1)c1ccc([N+](=O)[O-])o1 [Compound 144, N-[4-(2-Furyl)-5-(pyridin-2-ylcarbonyl)thiazol-2-yl]-5-nitrofuran-2-carboxamide] |
| 185 to 189 °C | Cc1ccc(C(=O)c2sc(NC(=O)c3ccncc3)nc2-c2ccco2)o1 [Compound 250, N-[4-(2-Furyl)-5-(5-methylfuran-2-ylcarbonyl)thiazol-2-yl]pyridine-4-carboxamide] |
| 103 to 104 °C | COC[C@H]1CCCN1CC(=O)Nc1nc(-c2ccco2)c(C(=O)C2CCOCC2)s1 [Compound 442, N-[4-(2-Furyl)-5-(tetrahydropyran-4-ylcarbonyl)thiazol-2-yl]-2-[(2R)-2-(methoxymethyl)pyrrolidin-1-yl]acetamide] |
| 197 to 198 °C | O=C(Nc1nc(-c2ccco2)c(C(=O)C2CCOCC2)s1)c1cccc(OC(F)(F)F)c1 [Compound 381, N-[4-(2-Furyl)-5-(tetrahydropyran-4-ylcarbonyl)thiazol-2-yl]-3-(trifluoromethoxy)benzamide] |
| 190 to 194 °C | CC(C)n1nc(-c2sc(NC(=O)c3ccncc3)nc2-c2ccco2)ccc1=O [Compound 39, N-[4-(2-Furyl)-5-(1-isopropyl-6-oxo-1,6-dihydropyridazin-3-yl)thiazol-2-yl]pyridine-4-carboxamide] |
| 270 to 274 °C | O=C(Nc1nc(-c2ccco2)c(C(=O)c2ccccn2)s1)c1ccnnc1 [Compound 135, N-[4-(2-Furyl)-5-(pyridin-2-ylcarbonyl)thiazol-2-yl]pyridazine-4-carboxamide] |
| 212 to 213 °C | O=C(Nc1nc(-c2ccco2)c(C(=O)c2ccccc2)s1)c1ccnc(CN2CCOCC2)c1 [Compound 52, N-[5-Benzoyl-4-(2-furyl)thiazol-2-yl]-2-(morpholinomethyl)pyridine-4-carboxamide] |
| 230 to 234 °C | Cc1ncccc1C(=O)c1sc(NC(=O)c2ccncc2)nc1-c1ccco1 [Compound 217, N-[4-(2-Furyl)-5-(2-methylpyridin-3-ylcarbonyl)thiazol-2-yl]pyridine-4-carboxamide] |
| 176 to 178 °C | O=C(CNC12CC3CC(CC(O)(C3)C1)C2)Nc1nc(-c2ccco2)c(C(=O)C2CCOCC2)s1 [Compound 483, N-[4-(2-Furyl)-5-(tetrahydropyran-4-ylcarbonyl)thiazol-2-yl]-2-(3-hydroxyadamantan-1-ylamino)acetamide] |
| 234 to 236 °C | O=C(Nc1nc(-c2ccco2)c(C(=O)c2cccnc2)s1)c1ccco1 [Compound 214, N-[4-(2-Furyl)-5-(pyridin-3-ylcarbonyl)thiazol-2-yl]furan-2-carboxamide] |
| 205 to 209 °C | CN(C)Cc1cc(C(=O)Nc2nc(-c3ccco3)c(C(=O)c3ccccc3)s2)ccn1 [Compound 49, N-[5-Benzoyl-4-(2-furyl)thiazol-2-yl]-2-(dimethylaminomethyl)pyridine-4-carboxamide] |
| 211 to 212 °C | O=C(Nc1nc(-c2ccco2)c(C(=O)c2ccccn2)s1)c1ccc(Br)o1 [Compound 143, 5-Bromo-N-[4-(2-furyl)-5-(pyridin-2-ylcarbonyl)thiazol-2-yl]furan-2-carboxamide] |
| 109 to 114 °C | CCn1cc(C(=O)Nc2nc(-c3ccco3)c(C(=O)c3ccccc3)s2)ccc1=O [Compound 59, N-[5-Benzoyl-4-(2-furyl)thiazol-2-yl]-1-ethyl-2-oxo-1,2-dihydropyridine-5-carboxamide] |

| melting point | Compound |
| --- | --- |
| 234 to 235 °C | O=C(Nc1nc(-c2ccco2)c(C(=O)c2ccccn2)s1)c1cnc2occc2c1 [Compound 156, N-[4-(2-Furyl)-5-(pyridin-2-ylcarbonyl)thiazol-2-yl]-furo[2,3-b]pyridine-5-carboxamide] |
| 195 to 198 °C | Cc1cc(C(=O)Nc2nc(-c3ccco3)c(C(=O)c3ccccn3)s2)c(C)o1 [Compound 148, N-[4-(2-Furyl)-5-(pyridin-2-ylcarbonyl)thiazol-2-yl]-2,5-dimethylfuran-3-carboxamide] |
| 209 to 211 °C | Cn1ccc(C(=O)c2sc(NC(=O)c3ccncc3)nc2-c2ccco2)c1 [Compound 261, N-[4-(2-Furyl)-5-(1-methylpyrrol-3-ylcarbonyl)thiazol-2-yl]pyridine-4-carboxamide] |
| 115 to 117 °C | O=C(CN1CCCC1)Nc1nc(-c2ccco2)c(C(=O)C2CCOCC2)s1 [Compound 441, N-[4-(2-Furyl)-5-(tetrahydropyran-4-ylcarbonyl)thiazol-2-yl]-2-(1-pyrrolidinyl)acetamide] |
| 172 to 176 °C | CCCC(=O)c1sc(NC(=O)c2ccco2)nc1-c1ccco1 [Compound 293, N-[5-Butyryl-4-(2-furyl)thiazol-2-yl]furan-2-carboxamide] |
| 270 to 275 °C | O=C(Nc1nc(-c2ccco2)c(C(=O)c2ccccc2)s1)c1ccc(=O)n(Cc2ccncc2)c1 [Compound 60, N-[5-Benzoyl-4-(2-furyl)thiazol-2-yl]-2-oxo-1-(pyridin-4-ylmethyl)-1,2-dihydropyridine-5-carboxamide] |
| 170 to 171 °C | CC(=O)N1CCN(CC(=O)Nc2nc(-c3ccco3)c(C(=O)c3ccccn3)s2)CC1 [Compound 183, 2-(4-Acetylpiperazin-1-yl)-N-[4-(2-furyl)-5-(pyridin-2-ylcarbonyl)thiazol-2-yl]acetamide] |
| 198 to 200 °C | COc1cccc(C(=O)Nc2nc(-c3ccco3)c(C(=O)C3CCOCC3)s2)c1OC [Compound 388, N-[4-(2-Furyl)-5-(tetrahydropyran-4-ylcarbonyl)thiazol-2-yl]-2,3-dimethoxybenzamide] |
| 195 to 220 °C | O=C(Nc1nc(-c2ccco2)c(C(=O)c2ccc(N3CCOCC3)nc2)s1)c1ccncc1 [Compound 231, N-[4-(2-Furyl)-5-(2-morpholinopyridin-5-ylcarbonyl)thiazol-2-yl]pyridine-4-carboxamide] |
| 217 to 222 °C | O=C(Nc1nc(-c2ccco2)c(C(=O)C2CCOCC2)s1)c1ccc(C(F)(F)F)nc1 [Compound 410, N-[4-(2-Furyl)-5-(tetrahydropyran-4-ylcarbonyl)thiazol-2-yl]-2-(trifluoromethyl)pyridine-5-carboxamide] |
| 153 to 154 °C | CC(C)(O)C(=O)Nc1nc(-c2ccco2)c(C(=O)c2ccccc2)s1 [Compound 45, N-[5-Benzoyl-4-(2-furyl)thiazol-2-yl]-2-hydroxy-2-methylpropanamide] |
| 289 to 292 °C | COc1ccc(C(=O)Nc2nc(-c3ccco3)c(C(=O)C3CCOCC3)s2)cc1OC [Compound 392, N-[4-(2-Furyl)-5-(tetrahydropyran-4-ylcarbonyl)thiazol-2-yl]-3,4-dimethoxybenzamide] |
| 194 to 196 °C | O=C(Nc1nc(-c2ccco2)c(C(=O)C2CCOCC2)s1)c1ccc2c(c1)OCO2 [Compound 401, N-[4-(2-Furyl)-5-(tetrahydropyran-4-ylcarbonyl)thiazol-2-yl]-1,3-benzodioxol-5-carboxamide] |
| 174 to 176 °C | Cc1ccoc1C(=O)Nc1nc(-c2ccco2)c(C(=O)c2ccccn2)s1 [Compound 145, N-[4-(2-Furyl)-5-(pyridin-2-ylcarbonyl)thiazol-2-yl]-3-methylfuran-2-carboxamide] |
| 280 to 281 °C | O=C(Nc1nc(-c2ccco2)c(C(=O)c2cccnn2)s1)c1ccncc1 [Compound 283, N-[4-(2-Furyl)-5-(pyridazine-3-ylcarbonyl)thiazol-2-yl]pyridine-4-carboxamide] |
| 259 to 260 °C | O=C(Nc1nc(-c2ccco2)c(C(=O)c2cc[nH]c2)s1)c1ccncc1 [Compound 260, N-[4-(2-Furyl)-5-(pyrrol-3-ylcarbonyl)thiazol-2-yl]pyridine-4-carboxamide] |
| 161 to 164 °C | O=C(CCc1ccccc1)Nc1nc(-c2ccco2)c(C(=O)C2CCOCC2)s1 [Compound 432, N-[4-(2-Furyl)-5-(tetrahydropyran-4-ylcarbonyl)thiazol-2-yl]-3-phenylpropanamide] |
| 107 to 110 °C | COc1ccc(OC)c(C(=O)Nc2nc(-c3ccco3)c(C(=O)C3CCOCC3)s2)c1 [Compound 390, N-[4-(2-Furyl)-5-(tetrahydropyran-4-ylcarbonyl)thiazol-2-yl]-2,5-dimethoxybenzamide] |
| 208 to 209 °C | Cc1cnc(C(=O)Nc2nc(-c3ccco3)c(C(=O)c3ccccn3)s2)cn1 [Compound 138, N-[4-(2-Furyl)-5-(pyridin-2-ylcarbonyl)thiazol-2-yl]-5-methylpyrazine-2-carboxamide] |
